# Patent US7632783B2 (priority 2004, dated 2009)
# Tested on: rice blast (Pyricularia oryzae)
# Assay: not given
# Format: in vivo
# Settings: potted rice (variety Karakaze), spraying liquid 300 ppm after spore inoculation, observed 7 days after inoculation, levels 0 to 3
row,Compound,degree of disease onset
1,"CC1(C)Cc2c(F)cccc2C(c2cnc3ccccc3c2)=N1.O=S(=O)(O)O [Example 104, 3-(5-fluoro-3,3-dimethyl-3,4-dihydroisoquinolin-1-yl)quinoline sulfate]",0
2,"CC1(C)Cc2c(cccc2-c2ccsc2)C(c2cnc3ccccc3c2)=N1 [Example 33, 3-[5-(3-thienyl)-3,3-dimethyl-3,4-dihydroisoquinolin-1-yl]quinoline]",0
3,"CC1CCC2(Cc3ccccc3C(c3cnc4ccccc4c3)=N2)C1 (stereo not shown) [Example 101, 1′-quinolin-3-yl-4′H-spiro[(3-methylcyclopentane)-1,3′-isoquinoline]]",0
4,"CC(C)C1(C)Cc2ccccc2C(c2cnc3ccccc3c2)=N1 (stereo not shown) [Example 59, 3-(3-isopropyl-3-methyl-3,4-dihydroisoquinolin-1-yl)quinoline]",0
5,"CC1(C)Cc2c(cccc2C(F)F)C(c2cnc3ccccc3c2)=N1 [Example 132, 3-(5-difluoromethyl-3,3-dimethyl-3,4-dihydroisoquinolin-1-yl)quinoline]",0
6,"CC(C)CC1(C)Cc2ccccc2C(c2cnc3ccccc3c2)=N1 (stereo not shown) [Example 60, 3-(3-isobutyl-3-methyl-3,4-dihydroisoquinolin-1-yl)quinoline]",0
7,"CCCC1(C)Cc2ccccc2C(c2cnc3ccccc3c2)=N1 (stereo not shown) [Example 57, 3-(3-methyl-3-propyl-3,4-dihydroisoquinolin-1-yl)quinoline]",0
8,"CC1(C)Cc2ccccc2C(c2cnc3c(F)cccc3c2)=N1 [Example 7, 3-(3,3-dimethyl-3,4-dihydroisoquinolin-1-yl)-8-fluoroquinoline]",0
9,"CCON=C(C)c1cccc2c1CC(C)(C)N=C2c1cnc2ccccc2c1 [Example 38, 1-(3,3-dimethyl-1-quinolin-3-yl-3,4-dihydroisoquinolin-5-yl)ethanone=O-ethyloxime]",0
10,"CC1(C)Cc2c(F)cccc2C(c2cnc3ccccc3c2)=[N+]1[O-] [Example 208, 3-(5-fluoro-3,3-dimethyl-2-oxide-3,4-dihydroisoquinolin-1-yl)quinoline]",0
11,"CON=Cc1cccc2c1CC(C)(C)N=C2c1cnc2ccccc2c1 [Example 117, 1-(3,3-dimethyl-1-quinolin-3-yl-3,4-dihydroisoquinolin-5-yl)methanone=O-methyloxime]",0
12,"CC(C)CCC1(C)Cc2ccccc2C(c2cnc3ccccc3c2)=N1 (stereo not shown) [Example 62, 3-(3-isopentyl-3-methyl-3,4-dihydroisoquinolin-1-yl)quinoline]",0
13,"Fc1ccc2c(c1)CC1(CCCC1)N=C2c1cnc2ccccc2c1 [Example 82, 6′-fluoro-1′-quinolin-3-yl-4′H-spiro[cyclopentane-1,3′-isoquinoline]]",0
14,"c1ccc2c(c1)C(c1cnc3ccccc3c1)=NCC21CCC1 [Example 171, 1′-quinolin-3-yl-4′H-spiro[cyclobutane-1,4′-isoquinoline]]",0
15,"CC1(C)Cc2c(F)cccc2C(c2cnc3ccccc3c2)=N1.O=[N+]([O-])O [Example 105, 3-(5-fluoro-3,3-dimethyl-3,4-dihydroisoquinolin-1-yl)quinoline nitrate]",0
16,"Fc1cccc2c1CC1(CCCC1)N=C2c1cnc2ccccc2c1 [Example 81, 5′-fluoro-1′-quinolin-3-yl-4′H-spiro[cyclopentane-1,3′-isoquinoline]]",0
17,"FC(F)(F)C1(c2ccccc2)Cc2ccccc2C(c2cnc3ccccc3c2)=N1 (stereo not shown) [Example 74, 3-(3-trifluoromethyl-3-phenyl-3,4-dihydroisoquinolin-1-yl)quinoline]",0
18,"Cc1cccc2c1C(C)(C)C(C)(C)N=C2c1cnc2ccccc2c1 [Example 160, 3-(3,3,4,4,5-pentamethyl-3,4-dihydroisoquinolin-1-yl)quinoline]",0

row,Compound,degree of disease onset
1,"CCC1(C)Cc2ccccc2C(c2cnc3ccccc3c2)=N1 (stereo not shown) [Example 55, 3-(3-ethyl-3-methyl-3,4-dihydroisoquinolin-1-yl)quinoline]",0
2,"CC1(C)Cc2c(F)cccc2C(c2cnc3ccccc3c2)=N1.O=C(O)C(=O)O [Example 106, 3-(5-fluoro-3,3-dimethyl-3,4-dihydroisoquinolin-1-yl)quinoline oxalate]",0
3,"CC1c2ccccc2C(c2cnc3ccccc3c2)=[N+]([O-])C1(C)C (stereo not shown) [Example 206, 3-(3,3,4-trimethyl-2-oxide-3,4-dihydroisoquinolin-1-yl)quinoline]",0
4,"COC1(C)c2c(F)cccc2C(c2cnc3ccccc3c2)=NC1(C)C (stereo not shown) [Example 183, 3-(5-fluoro-4-methoxy-3,3,4-trimethyl-3,4-dihydroisoquinolin-1-yl)quinoline]",0
5,"CON=C(C)c1cccc2c1CC(C)(C)N=C2c1cnc2ccccc2c1 [Example 36, 1-(3,3-dimethyl-1-quinolin-3-yl-3,4-dihydroisoquinolin-5-yl)ethanone=O-methyloxime]",0
6,"Cc1cccc2c1CC(C)(C)N=C2c1cnc2ccccc2c1 [Example 26, 3-(3,3,5-trimethyl-3,4-dihydroisoquinolin-1-yl)quinoline]",0
7,"Cc1cccc2cc(C3=NC(C)(C)Cc4ccccc43)cnc12 [Example 9, 3-(3,3-dimethyl-3,4-dihydroisoquinolin-1-yl)-8-methylquinoline]",0
8,"c1ccc2c(c1)CC1(CCCC1)N=C2c1cnc2ccccc2c1 [Example 80, 1′-quinolin-3-yl-4′H-spiro[cyclopentane-1,3′-isoquinoline]]",0
9,"CC1(C)Cc2ccccc2C(c2cnc3ccccc3c2)=N1 [Example 6, 3-(3,3-dimethyl-3,4-dihydroisoquinolin-1-yl)quinoline]",0
10,"CC1(C)N=C(c2cnc3ccccc3c2)c2ccc(F)cc2C1(C)C [Example 150, 3-(6-fluoro-3,3,4,4-tetramethyl-3,4-dihydroisoquinolin-1-yl)quinoline]",0
11,"CC1(C)Cc2cc(F)ccc2C(c2cnc3ccccc3c2)=N1 [Example 16, 3-(6-fluoro-3,3-dimethyl-3,4-dihydroisoquinolin-1-yl)quinoline]",0
12,"CC1(C)c2ccc(F)cc2C(c2cnc3ccccc3c2)=[N+]([O-])C1(C)C [Example 210, 3-(7-fluoro-3,3,4,4-tetramethyl-2-oxide-3,4-dihydroisoquinolin-1-yl)quinoline]",0
13,"5-fluoro-3,3,4,4-tetramethyl-8b-(1-oxidequinoline-3-yl)-4,8b-dihydro-3H-oxazileno[3,2-a]isoquinoline [Example 198]",0
14,"CCC1(CC)Cc2ccccc2C(c2cnc3ccccc3c2)=N1 [Example 63, 3-(3,3-diethyl-3,4-dihydroisoquinolin-1-yl)quinoline]",0
15,"CC1(C)N=C(c2cnc3ccccc3c2)c2cccc(F)c2C1(C)O (stereo not shown) [Example 181, 3-(5-fluoro-4-hydroxy-3,3,4-trimethyl-3,4-dihydroisoquinolin-1-yl)quinoline]",0
16,"CC1(C)Cc2c(cccc2-c2cccs2)C(c2cnc3ccccc3c2)=N1 [Example 32, 3-[5-(2-thienyl)-3,3-dimethyl-3,4-dihydroisoquinolin-1-yl]quinoline]",0
17,"CC1c2ccccc2C(c2cnc3ccccc3c2)=NC1(C)C (stereo not shown) [Example 119, 3-(3,3,4-trimethyl-3,4-dihydroisoquinolin-1-yl)quinoline]",0

# Tested on: gray mold (Botrytis cinerea)
# Assay: Tomato gray mold control test (preventive effects)
# Format: in vivo
# Settings: potted tomato (giant Fukuju variety), spraying liquid 300 ppm before spore inoculation, investigated 2 days after inoculation, levels 0 to 3
# Protocol: Bulk drug was dissolved in a mixed solution of dimethylsulfoxide and methanol (volume ratio: 7/3), and spraying liquids containing 300 ppm of compounds of the present invention were uniformly sprayed onto potted test plants (tomato: giant Fukuju variety) in the second to third leaf stage. […], a suspension of pathogen spores were inoculated by spraying onto the pots in an inoculation room at a room temperature of 20 to 23° C. to promote the onset of disease. The degree of disease onset was investigated 2 days after inoculation. The test was carried out in duplicate.
# Furthermore, the degree of disease onset was evaluated to one of four levels from 0 to 3 according to the criteria below by macroscopically observing the degree of disease onset of the test plants.
# 1: Degree of disease onset less than 40% of the untreated area
# 2: Degree of disease onset 40% to less than 80% of the untreated area
# 3: Degree of disease onset 80% or more
row,Compound,degree of disease onset
1,"CC1(C)N=C(c2cnc3ccccc3c2)c2cccc(F)c2C1(C)C.CS(=O)(=O)O [Example 159, 3-(5-fluoro-3,3,4,4-tetramethyl-3,4-dihydroisoquinolin-1-yl)quinoline methanesulfonate]",0
2,"CN1C(c2cnc3ccccc3c2)c2cccc(F)c2C(C)(C)C1(C)C (stereo not shown) [Example 191, 3-(5-fluoro-2,3,3,4,4-pentamethyl-1,2,3,4-tetrahydroisoquinoline-1-yl)quinoline]",0
3,"Clc1ccc2c(c1)CC1(CCCCC1)N=C2c1cnc2ccccc2c1 [Example 92, 6′-chloro-1′-quinolin-3-yl-4′H-spiro[cyclohexane-1,3′-isoquinoline]]",0
4,"CC(=NOc1ccccc1)c1cccc2c1CC(C)(C)N=C2c1cnc2ccccc2c1 [Example 44, 1-(3,3-dimethyl-1-quinolin-3-yl-3,4-dihydroisoquinolin-5-yl)ethanone=O-phenyloxime]",0
5,"CC1(C)N=C(c2cnc3ccccc3c2)c2cccc(Cl)c2C1(C)C [Example 123, 3-(5-chloro-3,3,4,4-tetramethyl-3,4-dihydroisoquinolin-1-yl)quinoline]",0
